The text below walks through data of US20100056536A1, “METHOD OF TREATING ATRIAL FIBRILLATION” (priority 2008, published 2010).

Each structure is given as a SMILES string. Where only a bound is given, the exact number is not on record here.

A word on the IC50: it is the concentration that gives 50% inhibition.

Series [1] has as its system canine isolated coronary artery-perfused right atrial preparations. Nature of the series: Electrophysiology (APD90, sodium channel-dependent parameters) in isolated coronary artery-perfused atrial preparations. To be noted: for effect on action potential duration (APD90) in atria, in words: ranolazine 1 to 10 μmol/L, lidocaine 2.1 to 21 μmol/L.
Protocol: (§4) Experiments were performed using isolated arterially perfused canine right atrial preparations and left ventricular arterially perfused wedge preparations (Antzelevitch et al. Circulation. 2004;110:904-910, Burashnikov et al. Am J Physiol. 2004;286:H2393-H2400., and Burashnikov et al. Circulation. 2003;107:2355-2360.) Therapeutic plasma concentrations of ranolazine (1-10 μM), lidocaine (2.1-21 μM), and propafenone (0.3-3.0 μM) were examined.
(§5) Sodium channel-mediated parameters, such as the maximum rate of rise of the AP upstroke (Vmax), conduction velocity (CV), diastolic threshold of excitation (DTE), and post-repolarization refractoriness (PRR) were evaluated. PRR was defined as the difference between action potential duration (APD) and atrial effective refractory period (ERP).
The target in series [2] is T1, peak sodium channel current (INa) in canine atrial myocytes (Canis lupus familiaris, UniProt Q865W3).
T1 construct: Whole-cell peak sodium currents were recorded at 37° C. in low-sodium external solution from myocytes isolated; endogenous in cells; host or cells: myocytes isolated from right atrium and left ventricle of adult mongrel dogs
In words: Whole-cell patch clamp, steady-state inactivation of sodium current in atrial myocytes. The conditions noted are these: 15 μM ranolazine, n=5, before drug −86.35±0.19. The format is cell-based. The method, then:
(§1) FIG. 1 presents the voltage dependence of activation and steady-state inactivation of sodium current in canine atrial versus ventricular myocytes. (A) Current-voltage relationship for sodium current in ventricular and atrial myocytes. […] (B) Summarized steady-state inactivation curves. […] Insets show representative atrial and ventricular traces after 1-s conditioning pulses to the indicated potentials. (C) Steady-state inactivation curves before and after addition of 15 μM ranolazine.
(§2) The electrophysiological effects of therapeutic concentrations of ranolazine (1 to 10μmol/L) and lidocaine (2.1 to 21 μmol/L) were evaluated in canine isolated coronary-perfused atrial and ventricular preparations.
(§3) Whole-cell peak sodium currents were recorded at 37° C. in low-sodium external solution from myocytes isolated from the right atrium and left ventricle (LV) of adult mongrel dogs.
(In patch-clamp work, channel activity is measured electrically.)

Series [3] has as its system ventricular Purkinje fibers and M cell preparations. The conditions noted are these: paced at a CL of 500 ms; read-out: IC50 for suppression of Vmax; cited from earlier work.
The next series relates to Purkinje fibers. In words: Action potential duration in Purkinje fibers. The format is cell-based, canine. To be noted: ranolazine 1 to 10 μmol/L. The protocol: as §2
The subject of series [4] is self-terminating AF in atria exposed to ischemia and β-adrenergic agonists. Nature of the series: AF induced by ischemia and β-adrenergic agonists in atria. The format is cell-based, canine. To be noted: ranolazine 5-10 μM. An excerpt: Ischemia/reperfusion coupled with iso-proterenol mimics the conditions that prevail during acute myocardial infarction or the substrate encountered postsurgically.

Series [5] has as its system canine superfused PV sleeve preparations. Nature of the series: Action potential recording in superfused pulmonary vein (PV) sleeve preparations. Type of series: cell-based. The method, then:
Action potentials (AP) were recorded from canine superfused PV sleeves using microelectrode techniques. Acetylcholine (ACh, 1 μM), isoproterenol (Iso, 1 μM), or their combination was used to induce EADs, DADs, and triggered activity.

Series [6] concerns the target T2, peak sodium channel current (INa) in canine ventricular myocytes (Canis lupus familiaris, UniProt Q865W3).
T2 construct: Whole-cell peak sodium currents were recorded at 37° C. in low-sodium external solution from myocytes isolated; endogenous in cells; host or cells: myocytes isolated from right atrium and left ventricle of adult mongrel dogs
In words: Whole-cell patch clamp, steady-state inactivation of sodium current in ventricular myocytes. The format is cell-based. The conditions noted are these: 15 μM ranolazine, before drug −72.53±0.16. The method, then:
as §1, §2, §3

The test system of series [7] is arterially-perfused right atrial preparations. In words: Transmembrane action potentials in arterially-perfused right atrial preparations (Example 4). To be noted: for action potential duration of pectinate muscle (PM-APD75): untreated 154±11.
Description: Floating microelectrode techniques were used to record transmembrane action potentials (BCL=500 ms).
A further series has as its target T3, late INa (Canis lupus familiaris, UniProt Q865W3).
T3 construct: host or cells: canine ventricular myocytes
To be noted: canine ventricular myocytes; read-out: IC50 for inhibition of late INa; cited from earlier work.

For the next series, the target named is T4, peak INa (Canis lupus familiaris, UniProt Q865W3).
T4 construct: […]; host or cells: canine ventricular myocytes
To be noted: canine ventricular myocytes; read-out: IC50 for inhibition of peak INa; cited from earlier work.

In series [8] the test system is canine left ventricular arterially perfused wedge preparations. Nature of the series: Electrophysiology (APD90, sodium channel-dependent parameters) in arterially perfused ventricular wedge preparations. To be noted: for DTE (% Δ) Ventricles, diastolic threshold of excitation: ranolazine 10 μM, lidocaine 21 μM, propafenone 1.5 μM; for effect on APD90 in ventricular myocardium, in words: ranolazine 1 to 10 μmol/L, lidocaine 2.1 to 21 μmol/L.
Protocol: as §4, §5

In series [9] the target is T5, rapidly activating delayed rectifier potassium current (IKr) (Canis lupus familiaris, UniProt Q9TSZ3).
T5 sequence (Q9TSZ3 1-1158): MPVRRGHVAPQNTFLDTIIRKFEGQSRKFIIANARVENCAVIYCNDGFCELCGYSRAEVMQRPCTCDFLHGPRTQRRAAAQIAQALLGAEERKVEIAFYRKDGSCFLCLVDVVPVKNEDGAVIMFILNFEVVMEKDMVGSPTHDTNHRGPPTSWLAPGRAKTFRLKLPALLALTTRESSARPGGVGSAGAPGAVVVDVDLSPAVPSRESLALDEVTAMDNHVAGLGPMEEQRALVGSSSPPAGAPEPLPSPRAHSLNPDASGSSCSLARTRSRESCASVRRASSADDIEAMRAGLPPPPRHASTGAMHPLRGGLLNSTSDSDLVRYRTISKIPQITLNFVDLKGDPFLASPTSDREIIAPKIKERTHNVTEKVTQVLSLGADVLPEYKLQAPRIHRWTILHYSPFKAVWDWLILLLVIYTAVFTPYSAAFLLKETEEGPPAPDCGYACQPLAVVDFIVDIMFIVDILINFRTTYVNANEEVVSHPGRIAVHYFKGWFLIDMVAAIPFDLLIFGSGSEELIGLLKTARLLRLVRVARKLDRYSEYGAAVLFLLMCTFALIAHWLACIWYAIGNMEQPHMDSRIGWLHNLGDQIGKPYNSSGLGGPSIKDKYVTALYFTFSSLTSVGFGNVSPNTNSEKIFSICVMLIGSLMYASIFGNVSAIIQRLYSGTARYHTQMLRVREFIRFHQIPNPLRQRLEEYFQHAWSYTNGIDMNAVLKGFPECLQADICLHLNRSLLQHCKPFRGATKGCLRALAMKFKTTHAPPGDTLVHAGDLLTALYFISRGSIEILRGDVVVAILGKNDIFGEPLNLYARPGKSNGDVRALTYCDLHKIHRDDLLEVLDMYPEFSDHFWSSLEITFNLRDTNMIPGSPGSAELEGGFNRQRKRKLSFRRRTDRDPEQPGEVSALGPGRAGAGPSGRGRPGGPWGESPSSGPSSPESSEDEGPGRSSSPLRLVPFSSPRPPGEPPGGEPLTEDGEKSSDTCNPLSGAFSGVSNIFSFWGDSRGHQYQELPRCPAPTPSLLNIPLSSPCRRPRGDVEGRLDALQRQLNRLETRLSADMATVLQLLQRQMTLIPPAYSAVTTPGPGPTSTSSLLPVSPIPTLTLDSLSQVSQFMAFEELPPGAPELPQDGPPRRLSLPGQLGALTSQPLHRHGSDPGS
To be noted: read-out: IC50 for block of IKr; cited from earlier work.

In series [10] the test system is acetylcholine-mediated AF in coronary artery-perfused right atrial preparations. Nature of the series: Acetylcholine-mediated persistent AF in coronary artery-perfused right atrial preparations. To be noted: for Termination of AF (share of preparations): acetylcholine (0.5 μM) persistent AF, ranolazine 10.0 μM, lidocaine 21.0 μM, propafenone 1.5-3.0 μM.
The mark [11] stands for this setting: drug alone: chronic Amio (6 weeks, 40 mg/kg daily) PV sleeves, or 10 μM ranolazine in untreated controls, untreated 124 ms.
[12] abbreviates: acute ranolazine 5 μM in chronic AMIO treated atria, BCL=500 ms.
[13] abbreviates: drug alone: chronic AMIO (40 mg/kg daily for 6 weeks) or acute ranolazine 5 μM in untreated atria, BCL=500 ms.
[14] abbreviates: drug alone: chronic AMIO (40 mg/kg daily for 6 weeks) or acute ranolazine 5 μM in untreated atria, BCL=500 ms, untreated 158±18.

Take `COc1ccccc1OCC(O)CN1CCN(CC(=O)Nc2c(C)cccc2C)CC1` (racemic) [Ranolazine, (±)-N-(2,6-dimethylphenyl)-4-[2-hydroxy-3-(2-methoxyphenoxy)-propyl]-1-piperazineacetamide]: the “atrial selectivity of depression of sodium channel-dependent parameters (atria versus ventricles), in words” value in [1] is on record as “striking atrial selectivity”. Besides, the “prolongation of APD90 in atria” value in [1] (CL=500 ms) was found to be 11%. In addition, the “effect on action potential duration (APD90) in atria, in words” value in series [1] is “prolongation”. Besides, the entries for the “half-inactivation voltage (V0.5) of steady-state inactivation after ranolazine” value in series [2] and in [6] were −91.38±0.35 mV and −74.81±0.14 mV, respectively. Further, the IC50 in series [3] was over 100 µM; on late INa, 6 µM; on peak INa, 294 µM; in series [9], 12 µM. Moreover, the “effect on APD90 in Purkinje fibers, in words” value in the series with Purkinje fibers is reported as “abbreviation”. The “atria in which induction of AF was prevented” value in series [4] is reported as 4 of 5. Also, the “average CL at which 2:1 activation failure developed” value was found to be 1350 ms in series [5] (5 μM RAN superfused on chronic Amio PV sleeves, n=5); 1660 ms in [5] (10 μM RAN superfused on chronic Amio PV sleeves, n=5); 190 ms in series [5] (setting [11]). In addition, the “late phase 3 EAD- and DAD-induced triggered activity” value in [5] (RAN 5-10 μM added to chronic Amio PV sleeves, Iso and/or ACh, rapid pacing) was “completely eliminated”. Moreover, in [7] (setting [12]), the “action potential duration APD75” value is 189 ± 9 ms. Further, the “effective refractory period (ERP)” value in series [7] (setting [12]) is 258 ± 50 ms; in series [7] (setting [14]), 190 ± 24 ms. The “action potential duration of pectinate muscle (PM-APD75)” value in [7] (setting [13]) amounted to 159 ± 9 ms. For the same compound, the “shortest pacing CL permitting 1:1 response” value in [7] (in presence of acetylcholine (ACh), control 71±12) is 94 ± 31 ms. The “shortest pacing CL permitting a 1:1 response” value in series [7] (without acetylcholine, control 129±8) amounted to 234 ± 49 ms. Also, the “change (prolongation) of APD90 in ventricles” value (from here on “change (prolongation) of APD90”) in series [8] (CL=500 ms) is reported as “+2%”. Also, the “DTE (% Δ) Ventricles, diastolic threshold of excitation” value (shortened to “DTE (% Δ) Ventricles”) in series [8] (pacing cycle length 0.3 s) is given as 8%; in series [8] (pacing cycle length 0.5 s) it was “+3%”. Further, the “effect on APD90 in ventricular myocardium, in words” value in series [8] was “no effect”. For the same compound, the “Termination of AF (share of preparations)” value (“Termination of AF” below) in series [10] is 66% (4/6).
For the compound `CCCCc1oc2ccccc2c1C(=O)c1cc(I)c(OCCN(CC)CC)c(I)c1` [Chronic Amiodarone, amiodarone], in [1] (CL=500 ms), the “prolongation of APD90 in atria” value was 22%. In addition, in series [5] (PV sleeves from dogs treated with chronic Amio (6 weeks, 40 mg/kg daily), CL 1000 ms, untreated controls 314±79), the “maximal rate of rise of AP upstroke (Vmax)” value came to 115±89 V/s. Further, in [5] (setting [11]), the “average CL at which 2:1 activation failure developed” value is recorded as 420 ms. In addition, in series [7] (setting [13]), the “action potential duration of pectinate muscle (PM-APD75)” value stood at 183 ± 7 ms. In addition, in series [7] (setting [14]), the “effective refractory period (ERP)” value was 222 ± 12 ms. Also, in series [8] (CL=500 ms), the “change (prolongation) of APD90” value is given as 12%. Moreover, the “atria in which persistent acetylcholine-mediated AF could be induced” value in [10] (atria isolated from dogs chronically treated, versus 10 of 10 untreated atria) is listed as 1 of 6.
As for `CCN(CC)CC(=O)Nc1c(C)cccc1C` [Lidocaine, lidocaine], in series [1], the “atrial selectivity of depression of sodium channel-dependent parameters (atria versus ventricles), in words” value is on record as “much less atrial-selective than ranolazine or chronic amiodarone” and the “effect on action potential duration (APD90) in atria, in words” value is given as “abbreviated”. For the same compound, the “abbreviation of APD90 in atria” value in [1] (CL=500 ms) was determined as 6%. Besides, the “abbreviation of APD90 in ventricles” value in series [8] (CL=500 ms) came to 9%. In addition, the “DTE (% Δ) Ventricles” value in series [8] (pacing cycle length 0.3 s) came out at 40%. The “DTE (% Δ) Ventricles” value in [8] (pacing cycle length 0.5 s) is reported as “+8%”. The “effect on APD90 in ventricular myocardium, in words” value in [8] is on record as “abbreviated”. Moreover, the “Termination of AF” value in series [10] is on record as 33% (2/6).
Take `CCCNCC(O)COc1ccccc1C(=O)CCc1ccccc1` (stereo not shown) [Propafenone, propafenone]: in series [1] (CL=500 ms), the “prolongation of APD90 in atria” value amounted to 13%. Moreover, the “change (prolongation) of APD90” value in series [8] (CL=500 ms) is on record as “+3%”. Also, the “DTE (% Δ) Ventricles” value in [8] (pacing cycle length 0.3 s) is 125%; in series [8] (pacing cycle length 0.5 s), “+84%”. Besides, the “Termination of AF” value in series [10] was 100% (7/7).
